Where two headings read alike, the source gives them in different places.
Key:
[1] = tested on: MDCK cells co-expressing GFP-K-RASG12V and mCherry-CAAX; assay: Cytotoxicity in mislocalization screen (death of all cells in well); conditions: drug caused death of all cells in well at 30 μM
mGFP-K-RASG12V = mGFP-K-RASG12V (Homo sapiens (Human), UniProt P01116, G12V); assay: K-Ras mislocalization assay (confocal microscopy, Manders coefficient); type: cell-based; design: key to Emax: Manders coefficient: fraction of mCherry-CAAX co-localizing with GFP-K-Ras; conditions: for IC50 / Emax / EC50: MDCK cells; for IC50: 48 h treatment, read-out: IC50 (μM), KRASG12V mislocalization; for Emax: maximal effect, Manders coefficient; for Emax / EC50: 48 h; for EC50: batch 4 compounds, title calls it IC50, read-out: EC50
Description: Madine Darby Canine Kidney epithelial cells (MDCK) stably co-expressing mGFP-tagged full length oncogenic mutant K-Ras (GFP—K-RASG12V) or mGFP-LactC2 (peptide probe for phosphatidylserine) and mCherry-tagged to the amino acids 179-189 of H-RasC181S, C184S (mCherry-CAAX, localizes primarily to endomembranes) were grown in DMEM-high glucose/sodium pyruvate/10% FBS. The medium was supplemented with 1× Penicillin/Streptomycin for fluorescence microscopy assays, to avoid any microbial contamination from the test compounds added. KLE and Hec50 cells were maintained in DMEM-F-12 medium supplemented with 10% FBS. Hec-1A and Hec-1B cells were grown in McCoy's 5a medium supplemented with 10% FBS. ESS-1 cells were grown in RPMI 1640 medium supplemented with 20% FBS. MPanc96 cells were grown in DMEM supplemented with 10% FBS, MiaPaCa-2 cells in DMEM supplemented with 10% FBS and 2.5% horse serum and all other cell lines were grown in RPMI 1640 supplemented with 10% FBS. All cancer cell media were supplemented with ×Penicillin/Streptomycin. All cell lines were grown at 37° C. with 5% CO2.
MDCK co-expressing GFP—K-RASG12V or LactC2 and mCherry-CAAX were grown on coverslips, treated with 0.1% vehicle (DMSO) or various concentrations of drugs for 48 h, and fixed with 4% paraformaldehyde. The coverslips were mounted in mowiol and imaged by confocal microscopy (Nikon A1) using a 60× objective. Using ImageJ software v1.42q, images were converted to 8-bit, and a threshold to a control pixel of each image was set. As a measure of K-Ras/LactC2 mislocalization, the fraction of mCherry-CAAX co-localizing with mGFP-K-RASG12V was calculated using a Manders coefficient plugin downloaded from Wright Cell Image Facility. The fraction of mCherry-CAAX co-localizing with mGFP-RASG12V (Mander's coefficient) is proportional to K-Ras mislocalization.

Compound	Cytotoxic at 30 μM [1]	IC50 (mGFP-K-RASG12V) [µM]	Emax (mGFP-K-RASG12V)	EC50 (mGFP-K-RASG12V) [µM]	also measured
Fc1ccc(CN(CC=C(c2ccccc2)c2ccccc2)CCN2CCCC2)cc1 [PW278, N-(4-fluorobenzyl)-3,3-diphenyl-N-(2-(pyrrolidin-1-yl)ethyl)prop-2-en-1-amine]	Yes	8.85	0.739		
CCCCNC(=O)N(CC=C(c1ccccc1)c1ccccc1)[C@H](C)c1ccc(OC)cc1 [NY0507, (R)-3-butyl-1-(3,3-diphenylallyl)-1-(1-(4-methoxyphenyl)ethyl)urea]	No		0.858	1.69	
C(CN(CCN1CCCC1)Cc1cc2cccnc2[nH]1)=C(c1ccccc1)c1ccccc1 [PW293, N-((1H-pyrrolo[2,3-b]pyridin-2-yl)methyl)-3,3-diphenyl-N-(2-(pyrrolidin-1-yl)ethyl)prop-2-en-1-amine]	Yes	3.37	0.83		
C[C@H](c1ccc(F)cc1)N(CCN1CCCC1)C(=O)c1cc(-c2ccccc2)ccn1 [PW324, (R)-N-(1-(4-Fluorophenyl)ethyl)-4-phenyl-N-(2-(pyrrolidin-1-yl)ethyl)picolinamide]	No	2.9	0.767		
C[C@H](c1ccc(F)cc1)N(CC=C(c1ccccc1)c1ccccc1)CCN1CCN(C)CC1 [NY0505, (R)-N-(1-(4-fluorophenyl)ethyl)-N-(2-(4-methylpiperazin-1-yl)ethyl)-3,3-diphenylprop-2-en-1-amine]	Yes	1.5	0.832	1.51	Emax (mGFP-K-RASG12V; listed as 15e): 0.83 ± 0.02
COc1ccc([C@@H](C)N(CC=C(c2ccccc2)c2ccccc2)CCN2CCN(C(=O)NC(C)(C)C)CC2)cc1 [NY0587, (R)-N-(tert-butyl)-4-(2-((3,3-diphenylallyl)(1-(4-methoxyphenyl)ethyl)amino)ethyl) piperazine-1-carboxamide]	No		0.827	1.83	
COc1ccc(/C(=C\CN(CCN2CCCC2)[C@H](C)c2ccc(F)cc2)c2ccc(F)cc2)cc1 [PW454, (R,E)-3-(4-fluorophenyl)-N-(1-(4-fluorophenyl)ethyl)-3-(4-methoxyphenyl)-N-(2-(pyrrolidin-1-yl)ethyl)prop-2-en-1-amine]	Yes at 10 uM	0.319	0.771		
COc1ccc([C@@H](C)N(CC=C(c2ccccc2)c2ccccc2)CCN2CCN(C(C)=O)CC2)cc1 [NY350, (R)-1-(4-(2-((3,3-diphenylallyl)(1-(4-methoxyphenyl)ethyl)amino)ethyl)piperazin-1-yl)ethanone]	No		0.877		
COc1ccc([C@H](C)N(CC=C(c2ccccc2)c2ccccc2)CCN2CC2)cc1 [NY0436]	No	14	0.716		
C(CN1CCN(c2ccccc2)CC1)=C(c1ccccc1)c1ccccc1 [NY307, 1-(3,3-diphenylallyl)-4-phenylpiperazine]	No	4.2	0.858		
COc1ccccc1[C@@H](C)N(CC=C(c1ccccc1)c1ccccc1)CCN1CCN(C)CC1 [NY0366, (R)-N-(1-(2-methoxyphenyl)ethyl)-N-(2-(4-methylpiperazin-1-yl)ethyl)-3,3-diphenylprop-2-en-1-amine]	Yes	3.81	0.861		IC50 (mGFP-K-RASG12V; listed as 15b): 3.8 µM; Emax (mGFP-K-RASG12V; listed as 15b): 0.86 ± 0.01
C[C@H](c1cccc(Cl)c1)N(CC=C(c1ccccc1)c1ccccc1)CCN1CCN(C)CC1 [NY0370b, (R)-N-(1-(3-chlorophenyl)ethyl)-N-(2-(4-methylpiperazin-1-yl)ethyl)-3,3-diphenylprop-2-en-1-amine]	Yes	11.2	0.767		Emax (mGFP-K-RASG12V; listed as 15g): 0.77 ± 0.07
COC(=O)[C@H](CC(C)C)NC(=O)[C@H](NCC=C(c1ccccc1)c1ccccc1)c1ccccc1 [NY0566, methyl ((R)-2-((3,3-diphenylallyl)amino)-2-phenylacetyl)-L-leucinate]	No		0.718	5.93	
C(CN(CC=C(c1ccccc1)c1ccccc1)[C@@H]1C[C@H]1c1ccccc1)=C(c1ccccc1)c1ccccc1 [NY022601, (1R,2S)-N,N-bis(3,3-diphenylallyl)-2-phenylcyclopropanamine]	No	0.42	0.713		
COc1ccc(NC(=O)N(CC=C(c2ccccc2)c2ccccc2)[C@H](C)c2ccc(OC)cc2)cc1 [NY0224, (R)-1-(3,3-diphenylallyl)-3-(4-methoxyphenyl)-1-(1-(4-methoxyphenyl)ethyl)urea]	No	0.64	0.622		
C[C@@H](NCCN1c2ccccc2Sc2ccccc21)c1ccc(F)cc1 [NY0575, (R)-N-(2-(10H-phenothiazin-10-yl)ethyl)-1-(4-fluorophenyl)ethan-1-amine]	No		0.484	4.3	
CCN1CCN(CCN(CC=C(c2ccccc2)c2ccccc2)[C@H](C)c2ccc(OC)cc2)CC1 [NY0589, (R)-N-(2-(4-ethylpiperazin-1-yl)ethyl)-N-(1-(4-methoxyphenyl)ethyl)-3,3-diphenylprop-2-en-1-amine]	Yes		0.895	2.18	
COc1ccc([C@@H](C)N(C/C=C/c2ccccc2)CCN2CCN(C)CC2)cc1 [NY346, (R,E)-N-(1-(4-methoxyphenyl)ethyl)-N-(2-(4-methylpiperazin-1-yl)ethyl)-3-phenylprop-2-en-1-amine]	No	14.8	0.84 ± 0.01		KRAS PM localization inhibition activity (in words) (mGFP-K-RASG12V): complete loss of in vitro activity
COc1ccc([C@@H](C)N(CC=C(c2ccccc2)c2ccccc2)CCN2CCCCC2)cc1 [NY329, (R)-N-(1-(4-methoxyphenyl)ethyl)-3,3-diphenyl-N-(2-(piperidin-1-yl)ethyl)prop-2-en-1-amine]	Yes	0.6	0.83 ± 0.02		
C[C@@H](NCCN1c2ccccc2Sc2ccccc21)c1ccccc1 [NY0574, (R)-N-(2-(10H-phenothiazin-10-yl)ethyl)-1-phenylethan-1-amine]	No		0.842	4.82	
C[C@H](c1ccc(F)cc1)N(CC=C(c1ccccc1)c1ccccc1)CCn1cc(CO)nn1 [PW304, (R)-(1-(2-((3,3-diphenylallyl)(1-(4-fluorophenyl)ethyl)amino)ethyl)-1H-1,2,3-triazol-4-yl)methanol]	No	2.77	0.794		
C[C@H](c1ccc(F)cc1)N(CC=C(c1ccccc1)c1ccccc1)CCn1cc(-c2ccc(F)cc2)nn1 [PW308, (R)-N-(2-(4-(4-fluorophenyl)-1H-1,2,3-triazol-1-yl)ethyl)-N-(1-(4-fluorophenyl)ethyl)-3,3-diphenylprop-2-en-1-amine]	No	3.32	0.721		
COc1ccc([C@@H](C)N(CC=C(c2ccccc2)c2ccccc2)C(=O)CN2CCN(C)CC2)cc1 [PW125, (R)-N-(3,3-diphenylallyl)-N-(1-(4-methoxyphenyl)ethyl)-2-(4-methylpiperazin-1-yl)acetamide]	Yes	7.09	0.514		IC50 (mGFP-K-RASG12V; listed as 20): 7.1 µM; Emax (mGFP-K-RASG12V; listed as 20): 0.51 ± 0.02
C[C@@H](NCC(=O)N1c2ccccc2Sc2ccccc21)c1ccc(F)cc1 [NY0573, (R)-2-((1-(4-fluorophenyl)ethyl)amino)-1-(10H-phenothiazin-10-yl)ethan-1-one]	No		0.733	1.75	
C[C@H](c1ccc(F)cc1)N(CC=C(c1ccccc1)c1ccccc1)CCn1cc(CCO)nn1 [PW303, (R)-2-(1-(2-((3,3-diphenylallyl)(1-(4-fluorophenyl)ethyl)amino)ethyl)-1H-1,2,3-triazol-4-yl)ethan-1-ol]	Yes	4.13	0.675		
